Test [1] concerns the target T1, human Smo (amino acids 181-787) (Homo sapiens, UniProt Q99835).
T1 construct: expressed in transfected cells; membrane preparation
The experiment in a line: Smo radioligand competition binding assay (displacement of 3H-PF-03451358 from HEK293 membranes). Conditions: for inhibition at 0.05 µM: 0.05 μM test compound, displacement of 3H-PF-03451358, read-out: SMO % inh. @ 0.05 μM; for IC50: radioligand competition binding. The essentials:
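Membranes (40 μg protein/well) from HEK293 expressing murine Igk-leader-fused Smo 181-787 incubated 2 h at room temperature with 3 nM 3H-PF-03451358 in Tris pH 7.5/NaCl/MgCl2/EDTA/BSA buffer; filter-bound counts by scintillation. Nonspecific binding with 30 μM cold PF-03451358; IC50 from four-parameter fit of % inhibition.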

In another test the test system is Gli-Luc/MEF cells (Smo). Kind of test: Gli-Luc/MEF assay (Shh-stimulated luciferase reporter under the Gli response element). Conditions: Mus musculus, MEF, 48 h. It is filed as cell-based, mouse. The essentials: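 Mouse Gli-Luc/MEF cells dosed with compound (3-fold series, […]) plus 2 μg/mL recombinant mouse Shh, then incubated 48 h at 37° C, 5% CO2. Bright-Glo luminescence read; IC50 calculated from inhibition of Shh-stimulated luciferase.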

Molecules are shown by their SMILES.

T1 sequence (Q99835 181-787): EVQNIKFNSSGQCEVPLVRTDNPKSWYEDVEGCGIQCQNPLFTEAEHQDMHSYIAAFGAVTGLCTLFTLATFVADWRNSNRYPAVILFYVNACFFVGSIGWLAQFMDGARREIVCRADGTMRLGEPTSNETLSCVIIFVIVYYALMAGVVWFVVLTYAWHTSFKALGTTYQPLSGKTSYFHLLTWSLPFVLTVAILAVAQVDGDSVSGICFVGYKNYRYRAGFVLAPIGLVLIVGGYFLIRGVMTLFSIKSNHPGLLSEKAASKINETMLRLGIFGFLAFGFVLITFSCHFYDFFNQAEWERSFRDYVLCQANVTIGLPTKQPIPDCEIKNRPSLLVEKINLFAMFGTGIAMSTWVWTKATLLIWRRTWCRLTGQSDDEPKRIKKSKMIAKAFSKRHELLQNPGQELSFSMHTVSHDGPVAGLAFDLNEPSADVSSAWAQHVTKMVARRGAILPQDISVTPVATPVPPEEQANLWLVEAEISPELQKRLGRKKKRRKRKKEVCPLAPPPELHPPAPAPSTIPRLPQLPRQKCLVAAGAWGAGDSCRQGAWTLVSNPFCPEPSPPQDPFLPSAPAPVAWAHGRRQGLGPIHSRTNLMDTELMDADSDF

With `Cn1c(-c2cc(N3CCN4C[C@H](O)CC4C3)ncc2Cl)nc2ccccc21` (stereo in doubt) [Example A-60, (7R,8aS)-2-[5-chloro-4-(1-methyl-1H-benzimidazol-2-yl)pyridin-2-yl]octahydropyrrolo[1,2-a]pyrazin-7-ol], in test [1], the inhibition at 0.05 µM came to 96% and the half-maximal inhibitory concentration (IC50) amounted to 27 nM. The same compound registered a concentration for half-maximal inhibition (IC50) in the test on Gli-Luc/MEF cells (Smo) of 22 nM.

For the compound `C[C@@H]1CN(c2cc(-c3nc4ccccc4n3C)c(Cl)cn2)CCN1` [Example A-157, 2-{5-chloro-2-[(3R)-3-methylpiperazin-1-yl]pyridin-4-yl}-1-methyl-1H-benzimidazole], in test [1], the inhibition at 0.05 µM was determined as 95% and the IC50 came to 35 nM. Moreover, in the test with Gli-Luc/MEF cells (Smo), 24 nM corresponded to half-maximal inhibition (IC50).

`COC(=O)N1CCN(c2cccc(-c3nc4ccccc4n3C)n2)CC1` [Example B-9, methyl 4-[6-(1-methyl-1H-benzimidazol-2-yl)pyridin-2-yl]piperazine-1-carboxylate]: in test [1], the inhibition at 0.05 µM came to 82% and the IC50 was 122 nM. The compound also returned an IC50 with Gli-Luc/MEF cells (Smo) of 143 nM.

Regarding `Cn1c(-c2cc(N3[C@@H]4CC[C@H]3CNC4)ncc2Cl)nc2ccccc21` [Example A-194, 2-{5-chloro-2-[(1R,5S)-3,8-diazabicyclo[3.2.1]oct-8-yl]pyridin-4-yl}-1-methyl-1H-benzimidazole], in test [1], the inhibition at 0.05 µM was found to be 111% and the concentration for half-maximal inhibition (IC50) was found to be 13 nM. Besides, 3.7 nM corresponded to half-maximal inhibition in the test with Gli-Luc/MEF cells (Smo) (IC50).

In the case of `CC(=O)N1CCN(c2cc(-c3nc4ccccc4[nH]3)c(Cl)cn2)CC1` [Example A-215, 2-[2-(4-acetylpiperazin-1-yl)-5-chloropyridin-4-yl]-1H-benzimidazole], in test [1], the inhibition at 0.05 µM turned out to be 79% and the half-inhibitory concentration (IC50) came to 189 nM. Further, 63 nM corresponded to half-maximal inhibition in the test with Gli-Luc/MEF cells (Smo) (IC50).

As for `Cn1c(-c2cc(N3CCC(N4CCNC(=O)CC4)CC3)ncc2Cl)nc2ccccc21` [Example A-91, 1-{1-[5-chloro-4-(1-methyl-1H-benzimidazol-2-yl)pyridin-2-yl]piperidin-4-yl}-1,4-diazepan-5-one], in test [1], the inhibition at 0.05 µM came to 88% and the 50% inhibitory concentration (IC50) was 55 nM. The half-maximal inhibitory concentration (IC50) with Gli-Luc/MEF cells (Smo) came to 16 nM.

On to `CNC(=O)N1CCCN(c2cc(-c3nc4ccccc4n3C)ccn2)CC1` [Example A-155, N-methyl-4-[4-(1-methyl-1H-benzimidazol-2-yl)pyridin-2-yl]-1,4-diazepane-1-carboxamide], for which, in test [1], the inhibition at 0.05 µM amounted to 97% and the IC50 was 22 nM. This compound also returned a 50% inhibitory concentration (IC50) with Gli-Luc/MEF cells (Smo) of 12 nM.

On to `Cn1c(-c2cc(N3CCC4(CCCC(=O)N4)CC3)ncc2Cl)nc2ccccc21` [Example A-57, 9-[5-chloro-4-(1-methyl-1H-benzimidazol-2-yl)pyridin-2-yl]-1,9-diazaspiro[5.5]undecan-2-one], for which, in test [1], the inhibition at 0.05 µM amounted to 97% and the IC50 is 20 nM. The same compound came in with a 50% inhibitory concentration (IC50) in the test with Gli-Luc/MEF cells (Smo) of 7 nM.

Consider `CCC(=O)N1CCN(c2cc(-c3nc4ccccc4n3C)c(F)cn2)CC1` [Example D-4, 2-[5-fluoro-2-(4-propionylpiperazin-1-yl)pyridin-4-yl]-1-methyl-1H-benzimidazole], for which, in test [1], the inhibition at 0.05 µM was found to be 98% and the half-maximal inhibitory concentration (IC50) came out at 19 nM. The compound also yielded an IC50 in the test on Gli-Luc/MEF cells (Smo) of 20 nM.

For `Cc1noc(CC2CN(c3cc(-c4nc5ccccc5n4C)c(Cl)cn3)CCO2)n1` (stereo not shown) [Example A-45, 2-(5-chloro-2-{2-[(3-methyl-1,2,4-oxadiazol-5-yl)methyl]morpholin-4-yl}pyridin-4-yl)-1-methyl-1H-benzimidazole], in test [1], the inhibition at 0.05 µM is 102% and the IC50 came out at 13 nM. This compound also had an IC50 in the test with Gli-Luc/MEF cells (Smo) of 9 nM.

`CNC(=O)N1CCN(c2cc(-c3nc4ccccc4n3C)c(Cl)cn2)CC1` [Example A-3, 4-[5-chloro-4-(1-methyl-1H-benzimidazol-2-yl)pyridin-2-yl]-N-methylpiperazine-1-carboxamide]: in test [1], the inhibition at 0.05 µM amounted to 93% and the 50% inhibitory concentration (IC50) is 14.1 nM. In the test with Gli-Luc/MEF cells (Smo), this compound returned a half-maximal inhibitory concentration (IC50) of 9 nM.

As for `Cn1c(-c2cc(N3C[C@H]4CNS(=O)(=O)[C@H]4C3)ncc2Cl)nc2ccccc21` (stereo in doubt) [Example A-55, 2-{5-chloro-2-[(3aS,6aR)-1,1-dioxidohexahydro-5H-pyrrolo[3,4-d]isothiazol-5-yl]pyridin-4-yl}-1-methyl-1H-benzimidazole], in test [1], the inhibition at 0.05 µM amounted to 98% and the half-inhibitory concentration (IC50) was determined as 26 nM. The midpoint of inhibition in the test on Gli-Luc/MEF cells (Smo), the IC50, lay at 10 nM.

`Cn1c(-c2cc(N3CCN(C=O)CC3)ncc2Cl)nc2cccnc21` [Example A-170, 4-[5-chloro-4-(3-methyl-3H-imidazo[4,5-b]pyridin-2-yl)pyridin-2-yl]piperazine-1-carbaldehyde]: in test [1], the inhibition at 0.05 µM was 81%. The IC50 in test [1] is 140 nM; in the test on Gli-Luc/MEF cells (Smo) it was 118 nM.

Turning to `Cn1c(-c2cc(N3CC[C@@H](O)[C@H](O)C3)ncc2Cl)nc2ccccc21` [Example A-63, (3R,4R)-1-[5-chloro-4-(1-methyl-1H-benzimidazol-2-yl)pyridin-2-yl]piperidine-3,4-diol], the inhibition at 0.05 µM in test [1] turned out to be 95%. For the same compound, the concentration for half-maximal inhibition (IC50) stood at 25 nM in test [1] and 18 nM with Gli-Luc/MEF cells (Smo).

Regarding `CNC(=O)N1CCN(c2cccc(-c3nc4ccccc4n3C)n2)CC1` [Example B-10, N-methyl-4-[6-(1-methyl-1H-benzimidazol-2-yl)pyridin-2-yl]piperazine-1-carboxamide], in test [1], the inhibition at 0.05 µM stood at 72% and the IC50 is 82 nM. In the test with Gli-Luc/MEF cells (Smo), this compound had an IC50 of 89 nM.

For `Cn1c(-c2cc(N3CC(CS(C)(=O)=O)C3)ncc2Cl)nc2ccccc21` [Example A-211, 2-(5-chloro-2-{3-[(methylsulfonyl)methyl]azetidin-1-yl}pyridin-4-yl)-1-methyl-1H-benzimidazole], in test [1], the inhibition at 0.05 µM was 104%. In addition, the IC50 in test [1] was 36 nM; in the test with Gli-Luc/MEF cells (Smo), 28.4 nM.

For `Cn1c(-c2cccc(N3CCN(S(C)(=O)=O)CC3)n2)nc2ccccc21` [Example B-7, 1-methyl-2-{6-[4-(methylsulfonyl)piperazin-1-yl]pyridin-2-yl}-1H-benzimidazole], the inhibition at 0.05 µM in test [1] was 78%. In addition, the values for the IC50 (in test [1]; in the test on Gli-Luc/MEF cells (Smo)) were 97 nM and 189 nM, respectively.

On to `Cn1c(-c2cc(N3CCC(C(=O)N4CCCC4)CC3)ncc2Cl)nc2ccccc21` [Example A-100, 2-{5-chloro-2-[4-(pyrrolidin-1-ylcarbonyl)piperidin-1-yl]pyridin-4-yl}-1-methyl-1H-benzimidazole], for which, in test [1], the inhibition at 0.05 µM turned out to be 83% and the IC50 came to 55 nM. Also, half-maximal inhibition with Gli-Luc/MEF cells (Smo) (IC50) required 21 nM.

As for `COCC(=O)N1CCN(c2cc(-c3nc4ccccc4n3C)c(Cl)cn2)CC1` [Example A-201, 2-{5-chloro-2-[4-(methoxyacetyl)piperazin-1-yl]pyridin-4-yl}-1-methyl-1H-benzimidazole], in test [1], the inhibition at 0.05 µM amounted to 96% and the half-inhibitory concentration (IC50) turned out to be 14 nM. This compound also had an IC50 in the test with Gli-Luc/MEF cells (Smo) of 8.8 nM.

For the compound `Cn1c(-c2cc(N3CCC(N4CCC(O)CC4)CC3)ncc2Cl)nc2ccccc21` [Example A-119, 1′-[5-chloro-4-(1-methyl-1H-benzimidazol-2-yl)pyridin-2-yl]-1,4′-bipiperidin-4-ol], the inhibition at 0.05 µM in test [1] came to 64%. Also, the midpoint of inhibition in the test on Gli-Luc/MEF cells (Smo), the IC50, lay at 111 nM.

Turning to `CCn1nnnc1C1CN(c2cc(-c3nc4ccccc4n3C)c(Cl)cn2)CCO1` (stereo not shown) [Example A-71, 2-{5-chloro-2-[2-(1-ethyl-1H-tetrazol-5-yl)morpholin-4-yl]pyridin-4-yl}-1-methyl-1H-benzimidazole], in test [1], the inhibition at 0.05 µM is 94% and the half-maximal inhibitory concentration (IC50) is 18 nM. Also, inhibition with Gli-Luc/MEF cells (Smo) was half-maximal at 10 nM (IC50).

In the case of `Cn1c(-c2cc(N3CC(NC(=O)C4CCOCC4)C3)ncc2Cl)nc2ccccc21` [Example A-205, N-{1-[5-chloro-4-(1-methyl-1H-benzimidazol-2-yl)pyridin-2-yl]azetidin-3-yl}tetrahydro-2H-pyran-4-carboxamide], the inhibition at 0.05 µM in test [1] worked out at 93%. For the same compound, the midpoint of inhibition with Gli-Luc/MEF cells (Smo), the IC50, lay at 14.2 nM.

For the compound `CN(C)CC(=O)N1CCN(c2ncc(Cl)c(-c3nc4ccccc4n3C)n2)CC1` [Example C-15, 2-{4-[5-chloro-4-(1-methyl-1H-benzimidazol-2-yl)pyrimidin-2-yl]piperazin-1-yl}-N,N-dimethyl-2-oxoethanamine], the inhibition at 0.05 µM in test [1] came out at 95%. Moreover, the figures for the 50% inhibitory concentration (IC50) (in test [1]; with Gli-Luc/MEF cells (Smo)) were 64 nM and 8.9 nM, respectively.

In the case of `Cn1c(-c2cc(N3CCC(CS(N)(=O)=O)CC3)ncc2Cl)nc2ccccc21` [Example A-65, 1-{1-[5-chloro-4-(1-methyl-1H-benzimidazol-2-yl)pyridin-2-yl]piperidin-4-yl}methanesulfonamide], in test [1], the inhibition at 0.05 µM stood at 95% and the IC50 was 6 nM. In the test with Gli-Luc/MEF cells (Smo), this compound had an IC50 of 2 nM.

In the case of `Cn1c(-c2cc(N3CCOCC(O)C3)ncc2Cl)nc2ccccc21` (stereo not shown) [Example A-53, 4-[5-chloro-4-(1-methyl-1H-benzimidazol-2-yl)pyridin-2-yl]-1,4-oxazepan-6-yl], in test [1], the inhibition at 0.05 µM was found to be 98%. For the same compound, the half-inhibitory concentration (IC50) in test [1] came out at 12 nM; with Gli-Luc/MEF cells (Smo), 9 nM.

For the compound `CN(CC(C)(C)O)c1cc(-c2nc3ccccc3n2C)c(Cl)cn1` [Example A-209, 1-{[5-chloro-4-(1-methyl-1H-benzimidazol-2-yl)pyridin-2-yl](methyl)amino}-2-methylpropan-2-ol], in test [1], the inhibition at 0.05 µM amounted to 97% and the IC50 stood at 18 nM. Besides, it took 19.6 nM to reach half-maximal inhibition in the test with Gli-Luc/MEF cells (Smo) (IC50).

For `COC(=O)N(C)C1CCN(c2cc(-c3nc4ccccc4n3C)c(Cl)cn2)C1` (stereo not shown) [Example A-178, methyl {1-[5-chloro-4-(1-methyl-1H-benzimidazol-2-yl)pyridin-2-yl]pyrrolidin-3-yl}methylcarbamate], in test [1], the inhibition at 0.05 µM came out at 92% and the IC50 was determined as 43 nM. The IC50 with Gli-Luc/MEF cells (Smo) came out at 17 nM.

(Values after patent US20120157471A1, “BENZIMIDAZOLE DERIVATIVES” (PFIZER INC., priority 2009, published 2012).)
